Data on three molecules can be found in ChEMBL document CHEMBL4325896, “The potential role of tubeimosides in cancer prevention and treatment” (Eur J Med Chem, 2019).

Each structure is given as a SMILES string. Values after ≈ are worked out from the molar mass of the structure shown.

Data set [1] has as its system HeLa. The data set is described as follows: Antiproliferative activity against human HeLa cells after 72 hrs by MTT assay. It counts as functional, cell-based. For orientation: Tetrazolium dyes change colour on reduction, which living cells bring about.
Data set [2] is described as follows: Antiproliferative activity against human A2780DDP cells after 12 hrs. It counts as functional, cell-based.
For data set [3], the system named is ECa-109 cell line. The data set is described as follows: Antiproliferative activity against human EC109 cells after 24 hrs by MTT assay. The note with it: ECa-109, 24 h. It is filed as functional, cell-based.
In data set [4] the test system is HeLa. The data set is described as follows: Antiproliferative activity against human HeLa cells after 24 hrs by MTT assay. It counts as functional, cell-based.
Data set [5] has as its system PC-9. The experiment in a line: Antiproliferative activity against human PC9 cells after 72 hrs by MTS assay. It is filed as functional, cell-based. The note with it: PC-9, 72 h.
Data set [6] is described as follows: Cmax in Sprague-Dawley rat at 50 mg/kg, po by LC-MS analysis. It is filed as ADME, organism-based. The arrangement: dose 50 mg/kg, route oral. The note with it: in vivo.
Data set [7] in a line: Tmax in Sprague-Dawley rat at 50 mg/kg, po by HPLC-DAD-IT-TOF-MS analysis. Particulars: in vivo. It counts as ADME, organism-based.
A short description of data set [8]: Toxicity in ip dosed ICR mouse. It is filed as organism-based. Particulars: in vivo.
Data set [9] is described as follows: AUC (0 to 24 hrs) in Sprague-Dawley rat at 50 mg/kg, po by HPLC-DAD-IT-TOF-MS analysis. The note with it: in vivo. The arrangement: dose 50 mg/kg, time < 24 hr, route oral. It counts as ADME, organism-based.
For data set [10], the system named is HepG2. The experiment in a line: Antiproliferative activity against human HepG2 cells after 24 hrs by MTT assay. It is filed as functional, cell-based. Particulars: HepG2, 24 h.
The nature of data set [11]: Antiproliferative activity against human A2780DDP cells after 24 hrs. It counts as functional, cell-based.
In data set [12] the test system is NCI-H460. The experiment in a line: Antiproliferative activity against human NCI-H460 cells after 24 hrs by WST-1 assay. It counts as functional, cell-based. Particulars: NCI-H460, 24 h.
The test system of data set [13] is HeLa. The data set is described as follows: Cytotoxicity against human HeLa cells after 24 hrs by MTT assay. It counts as functional, cell-based.
In data set [14] the test system is HUVEC. The data set is described as follows: Antiproliferative activity against HUVEC after 72 hrs. It is filed as functional, cell-based. The note with it: Homo sapiens.
For data set [15], the system named is SK-OV-3. The data set is described as follows: Antiproliferative activity against human SKOV3 cells after 24 hrs by MTT assay. It is filed as functional, cell-based. The note with it: SK-OV-3, 24 h.
A short description of data set [16]: MRT (0 to 24 hrs) in Sprague-Dawley rat at 50 mg/kg, po by HPLC-DAD-IT-TOF-MS analysis. It is filed as ADME, organism-based. Particulars: in vivo.
Data set [17] is described as follows: MRT (0 to infinity) in Sprague-Dawley rat at 50 mg/kg, po by HPLC-DAD-IT-TOF-MS analysis. It is filed as ADME, organism-based. The note with it: in vivo.
Data set [18] can be described thus: Elimination half life in Sprague-Dawley rat at 5 mg/kg, iv by LC-MS analysis. It counts as ADME, organism-based. The note with it: in vivo.
The subject of data set [19] is A549. The data set is described as follows: Antiproliferative activity against human A549 cells after 72 hrs by MTS assay. It is filed as functional, cell-based. Particulars: A549, 72 h.
Data set [20] is described as follows: Cmax in Sprague-Dawley rat at 50 mg/kg, po by HPLC-DAD-IT-TOF-MS analysis. It is filed as ADME, organism-based. On the set-up: dose 50 mg/kg, route oral. The note with it: in vivo.
Data set [21] in a line: Elimination half life in ICR mouse at 20 mg/kg, po by UPLC-MS/MS analysis. It is filed as ADME, organism-based. The note with it: in vivo, read-out: beta t1/2 (converted).
The nature of data set [22]: Elimination half life in ICR mouse at 5 mg/kg, iv by UPLC-MS/MS analysis. Particulars: in vivo, read-out: beta t1/2 (converted). It is filed as ADME, organism-based.
Data set [23] concerns HeLa. The data set is described as follows: Antiproliferative activity against human HeLa cells after 48 hrs by MTT assay. It is filed as functional, cell-based.
In data set [24] the test system is HUVEC. The data set is described as follows: Antiproliferative activity against HUVEC after 48 hrs. Particulars: Homo sapiens. It is filed as functional, cell-based.
Data set [25] deals with JEG-3. The experiment in a line: Antiproliferative activity against human JEG3 cells after 24 hrs by MTT assay. It counts as functional, cell-based. Particulars: JEG-3, 24 h.
In data set [26] the test system is HUVEC. The experiment in a line: Antiproliferative activity against HUVEC after 24 hrs. It is filed as functional, cell-based. The note with it: Homo sapiens.
The nature of data set [27]: Antiproliferative activity against human PGCL3 cells after 24 hrs by MTT assay. It counts as functional, cell-based.
A short description of data set [28]: Tmax in Sprague-Dawley rat at 50 mg/kg, po by LC-MS analysis. Particulars: in vivo. It counts as ADME, organism-based.
A short description of data set [29]: Antiproliferative activity against human PGCL3 cells after 48 hrs by MTT assay. It is filed as functional, cell-based.
Data set [30] is described as follows: Antiproliferative activity against mouse eEND.2 cells after 24 hrs by WST-1 assay. It is filed as cell-based.
Data set [31] is described as follows: Oral bioavailability in ICR mouse at 20 mg/kg by UPLC-MS/MS analysis. It counts as ADME, organism-based. Particulars: in vivo.
Data set [32] has as its system NCI-H460. The experiment in a line: Antiproliferative activity against human NCI-H460 cells after 9 hrs by MTT assay. It is filed as functional, cell-based. The note with it: NCI-H460, 9 h.
Data set [33] is described as follows: Half life in Sprague-Dawley rat at 50 mg/kg, po by HPLC-DAD-IT-TOF-MS analysis. It counts as ADME, organism-based. The note with it: in vivo.
Data set [34] is described as follows: Oral bioavailability in Sprague-Dawley rat at 50 mg/kg by LC-MS analysis. The note with it: in vivo. It counts as ADME, organism-based.
Data set [35] concerns HUVEC. The experiment in a line: Antimigratory activity against HUVEC at 20 umol/L after 24 hrs relative to control. It is filed as functional, Homo sapiens.
Data set [36] concerns T-24. The experiment in a line: Antiproliferative activity against human T24 cells after 24 hrs by MTT assay. It is filed as functional, cell-based. The note with it: T-24, 24 h.
Data set [37] can be described thus: AUC (0 to infinity) in Sprague-Dawley rat at 50 mg/kg, po by HPLC-DAD-IT-TOF-MS analysis. It is filed as ADME, organism-based. The arrangement: dose 50 mg/kg, time infinity, route oral. The note with it: in vivo.
Data set [38] has as its system DU-145. The experiment in a line: Antiproliferative activity against human DU145 cells after 24 hrs by MTT assay. The note with it: DU-145, 24 h. It counts as functional, cell-based.
The nature of data set [39]: Antiproliferative activity against human A2780DDP cells after 48 hrs. It counts as functional, cell-based.
Data set [40] relates to NCI-H1299. The experiment in a line: Antiproliferative activity against human NCI-H1299 cells after 48 hrs by CCK-8 assay. It is filed as functional, cell-based. The note with it: NCI-H1299, 48 h.
The subject of data set [41] is ECa-109 cell line. The experiment in a line: Antiproliferative activity against human EC109 cells after 48 hrs by MTT assay. It counts as functional, cell-based. Particulars: ECa-109, 48 h.
A short description of data set [42]: Antiproliferative activity against human PGCL3 cells after 72 hrs by MTT assay. It is filed as functional, cell-based.
A short description of data set [43]: Volume of distribution at terminal phase in Sprague-Dawley rat at 5 mg/kg, iv by LC-MS analysis. It is filed as ADME, organism-based. The note with it: in vivo.
The test system of data set [44] is PC-3. The data set is described as follows: Antiproliferative activity against human PC3 cells after 24 hrs by MTT assay. It counts as functional, cell-based. Particulars: PC-3, 24 h.
The subject of data set [45] is HepG2. The experiment in a line: Antiproliferative activity against human HepG2 cells. It counts as functional, cell-based.

In general, IC50 refers to the concentration that gives 50% inhibition. High values mean weaker potency in that assay, low ones greater potency in that assay. The Cmax is the peak of the concentration-time curve. One may read the Tmax as the time from dosing to the highest level. What is called LD50 is the dose at which mortality reaches 50%. A lower LD50 goes with greater toxicity. In general, AUC(0-t) refers to exposure summed from dosing to a finite time, without extrapolation to infinity. High values mean more exposure, low ones less exposure. One may read the MRT last as the average time that molecules of a dose stay in the body. As a reminder, the MRT inf is a mean duration of stay, worked out from the concentration-time curve. As a reminder, the bioavailability is dose-corrected exposure relative to a reference, in per cent. A lower bioavailability goes with poor availability. In general, AUC refers to concentration integrated over time. Lower therefore signals less exposure. For `C[C@@H]1O[C@H]2O[C@H]3[C@@H](OC[C@H](O)[C@@H]3O)OC(=O)[C@]34CCC(C)(C)C[C@H]3C3=CC[C@@H]5[C@@]6(C)C[C@H](O)[C@H](O[C@@H]7O[C@H](CO)[C@@H](O)[C@H](O)[C@H]7O[C@@H]7OC[C@H](OC(=O)C[C@](C)(O)CC(=O)O[C@@H]1[C@@H](O[C@@H]1OC[C@@H](O)[C@H](O)[C@H]1O)[C@H]2O)[C@H](O)[C@H]7O)[C@@](C)(CO)[C@@H]6CC[C@@]5(C)[C@]3(C)CC4`, the IC50 in data set [1] was 17.1 µM; in data set [2] it was 3 µM; in [3], 45 µM; in data set [4], 34.8 µM; in data set [5], 10.2 µM; in [10] it was 15.5 to 20 µM. For the same molecule, the IC50 in data set [11] came to 6 µM; in data set [12], 23.3 µM; in [13], 25 µM; in data set [14] it was 17.9 µM; in data set [15] it was 16 µM; in data set [19], 12.3 µM. In addition, the IC50 is 27.1 µM in data set [23]; 21.4 µM in data set [24]; 8.5 µM in [25]; 24.2 µM in data set [26]; 15.7 µM in [27]; 14.2 µM in data set [29]. Moreover, the concentration for half-maximal inhibition (IC50) is 12 µM in data set [30]; 20 µM in data set [32]; 20 µM in data set [36]; 10 µM in [38]; 12 µM in data set [39]; 10 µM in data set [40]. For the same molecule, the IC50 amounted to 35 µM in data set [41], 13.3 µM in [42] and 20 µM in [44]. In addition, the values for the highest concentration (Cmax) in data set [6] and in data set [20] were 675 ng/mL and 1342 ng/mL, respectively. The Tmax worked out at 2.85 h in data set [7] and 2.75 h in data set [28]. Further, the LD50 in data set [8] is 18.7 mg/kg. Also, in data set [9], the AUC(0-t) at 24 h amounted to 8800 ng·h/mL. Further, the MRT last in data set [16] amounted to 7.02 h. The mean residence time MRT inf in [17] was 9.16 h. The “beta t1/2” value in data set [18] was 6.7 h. Besides, the values for the half-life in data set [21] and in data set [22] were 2.3 h and 6.8 h, respectively. Moreover, the bioavailability stood at 1% in data set [31] and 0.23% in [34]. In data set [33], this molecule yielded a t1/2 of 4.6 h. In [35], the Activity worked out at 58.4%. The molecule further registered an AUC in data set [37] of 9900 ng·h/mL. In [43], the Vbeta worked out at 0.106 L/kg.

Turning to `C[C@@H]1O[C@H]2O[C@H]3[C@@H](OC[C@H](O)[C@@H]3O)OC(=O)[C@]34CCC(C)(C)C[C@H]3C3=CC[C@@H]5[C@@]6(C)C[C@H](O)[C@H](O[C@@H]7O[C@H](CO)[C@@H](O)[C@H](O)[C@H]7O[C@@H]7OC[C@H](OC(=O)C[C@](C)(O)CC(=O)O[C@@H]1[C@@H](O[C@@H]1OC[C@@H](O)[C@H](O)[C@H]1O)[C@H]2O)[C@H](O)[C@H]7O)[C@@](C)(CO)[C@@H]6CC[C@@]5(C)[C@]3(C)C[C@H]4O`, the LD50 in data set [8] worked out at 21 mg/kg. In data set [45], this molecule had a half-maximal inhibitory concentration (IC50) of 4.05 µg/mL (≈ 3.03 µM).

In [8], `C[C@@H]1O[C@H]2O[C@H]3[C@@H](OC[C@H](O)[C@@H]3O)OC(=O)[C@]34CCC(C)(C)C[C@H]3C3=CC[C@@H]5[C@@]6(C)C[C@H](O)[C@H](O[C@@H]7O[C@H](CO)[C@@H](O)[C@H](O)[C@H]7O[C@@H]7O[C@H](COC(=O)C[C@](C)(O)CC(=O)O[C@@H]1[C@@H](O[C@@H]1OC[C@@H](O)[C@H](O)[C@H]1O)[C@H]2O)[C@@H](O)[C@H](O)[C@H]7O)[C@@](C)(CO)[C@@H]6CC[C@@]5(C)[C@]3(C)C[C@H]4O` had an LD50 of 15 mg/kg.
